Test results published in ChEMBL document CHEMBL5154941, “Structural Modifications of Nimodipine Lead to Novel PDE1 Inhibitors with Anti-pulmonary Fibrosis Effects” (J Med Chem, 2022).

Biological target: Dual specificity calcium/calmodulin-dependent 3',5'-cyclic nucleotide phosphodiesterase 1C (Homo sapiens, UniProt Q14123)
Assay: Inhibition of PDE1C (147 to 531 residues) (unknown origin) expressed in Escherichia coli BL21 using [3H]-cGMP as substrate measured for 15 mins by liquid scintillation counter method

Dual specificity calcium/calmodulin-dependent 3',5'-cyclic nucleotide phosphodiesterase 1C, sequence (Q14123 whole entry, the tested form may be a part): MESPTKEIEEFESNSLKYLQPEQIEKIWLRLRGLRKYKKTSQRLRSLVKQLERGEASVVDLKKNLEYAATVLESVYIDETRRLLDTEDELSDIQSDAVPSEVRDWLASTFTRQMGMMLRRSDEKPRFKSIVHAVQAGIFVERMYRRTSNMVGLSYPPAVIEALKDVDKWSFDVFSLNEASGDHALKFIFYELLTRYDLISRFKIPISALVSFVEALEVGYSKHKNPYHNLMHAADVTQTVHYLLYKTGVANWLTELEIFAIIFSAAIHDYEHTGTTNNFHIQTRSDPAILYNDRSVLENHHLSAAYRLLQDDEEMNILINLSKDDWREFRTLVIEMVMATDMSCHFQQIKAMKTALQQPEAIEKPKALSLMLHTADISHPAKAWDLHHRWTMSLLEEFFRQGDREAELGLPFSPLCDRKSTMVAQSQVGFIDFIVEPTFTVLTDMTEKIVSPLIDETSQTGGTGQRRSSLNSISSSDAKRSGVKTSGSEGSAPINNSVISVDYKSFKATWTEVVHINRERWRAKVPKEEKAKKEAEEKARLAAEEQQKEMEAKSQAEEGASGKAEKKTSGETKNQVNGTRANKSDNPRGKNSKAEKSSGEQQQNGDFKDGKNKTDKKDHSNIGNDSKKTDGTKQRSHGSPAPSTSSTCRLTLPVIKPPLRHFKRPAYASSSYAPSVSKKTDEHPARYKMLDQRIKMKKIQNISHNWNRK

## COC(=O)C1=C(C)NC(C)=C(C(=O)OC)C1c1ccccc1[N+](=O)[O-] [NIFEDIPINE]
  IC50: > 10 µM
